In brackets after ≈: the same amount, converted by molar mass. Where two headings read alike, the source gives them in different places.
Tests used:
[1] = system: Chinese hamster ovary (CHO); assay: cells; details: Cricetulus griseus, 48 h, read-out: ID50 (growth)
Protocol: (§1) The Figure illustrates the effect of morpholine on the growth rate of HFH-LP (*), NP (0), BHK (+) and CHO (#) 48 hours after treatment. Values represent the mean ± S.E. for 3 to 6 determinations.

[2] = system: HFH-LP (pigmented line derived from the B-16 mouse melanoma); assay: cells
Protocol: as §1

[3] = system: NP (amelanotic clone of HFH-LP); assay: cells; details: Mus musculus, 48 h, read-out: ID50 (growth)
Protocol: as §1

[4] = system: baby hamster kidney (BHK); assay: cells; details: Mesocricetus auratus, 48 h, read-out: ID50 (growth)
Protocol: as §1

[5] = system: unpigmented cell lines NP, BHK and CHO
Protocol: as §1

HFH-LP [6] = assay: Effect of Cyclic Amines on Growth Rate of Pigmented Melanoma (Table I), HFH-LP; type: cell-based, mouse; details: for inhibition at 13800 µM: Mus musculus, read-out: Effect on Growth Rate (inhibition), HFH-LP
Protocol: (§4) These cell cultures include low passage HFH (HFH-LP), a pigmented line derived from the B-16 mouse melanoma, and NP, an amelanotic clone of HFH-LP. […] These cells were maintained as monolayers in Corning plastic flasks in Minimum Essential Medium (Eagle) with Earle's salts supplemented with 10% fetal bovine serum, 100 units of penicillin, 100 mg of streptomycin and 5 mg of amphotericin B per ml in 5% CO2 humidified air at 37° C.
(§5) Prior to dose-response studies, single cell suspensions were prepared in medium following trypsinization and inoculated into Falcon Multiwell plates (2 cm^2 wells) at 3.5×10^4 cells per 0.5 ml of medium. Cultures were maintained for 24 hours before exposure.
(§6) This stock solution was used to prepare test concentrations of the drug in culture medium. […] Cells were exposed to each of these concentrations by adding 0.5 ml of each of the solutions to triplicate test wells and incubating the cells under exposure at 37° C. for 1 hour. […] Cells were harvested after 48 hours and counted with a hemacytometer.

S91 melanoma = assay: Effects of Various Cyclic Amines on Growth of Pigmented Melanoma Cells (Table III), S91; type: cell-based, mouse; details: Mus musculus, read-out: Percent Inhibition, S91 melanoma
Protocol: (§2) Pigmented S91 melanoma and unpigmented L929 fibroblast cells were treated with various cyclic amines at a concentration of 13.8 mM as described in Example 1 above.

L929 fibroblast = assay: Effects of Various Cyclic Amines on Growth of Pigmented Melanoma Cells (Table III), L929; type: cell-based, mouse; details: Mus musculus, read-out: Percent Inhibition, L929 fibroblast
Protocol: as §2

BHK [7] = assay: cells; details: Mesocricetus auratus, read-out: Percent Cell Detachment
Protocol: (§3) HFH and SH heavily pigmented cells, S91 lightly pigmented cells, and BHK nonpigmented cells were exposed to 13.8 mM morpholine for time periods ranging from 1 hour to 56 hours. The procedure was otherwise the same as described in Example 1 above. Cell death is indicated by cell detachment.

HFH = assay: cells; details: Homo sapiens, read-out: Percent Cell Detachment
Protocol: as §3

S91 = assay: cells; details: Mus musculus, read-out: Percent Cell Detachment
Protocol: as §3

SH = assay: cells; details: read-out: Percent Cell Detachment
Protocol: as §3

L929 = assay: cells; details: Mus musculus, L929, 48 h, read-out: Growth inhibition, Morph. Alone vs. control
melanin-pigmented cells = assay: In vitro selective inhibition of melanin-pigmented cells, effective dosage/time regimens; type: cell-based
RPMI-1641 [8] = details: RPMI 1641, morpholine alone
Source text: (§7) These cell cultures include low passage HFH (HFH-LP), a pigmented line derived from the B-16 mouse melanoma, and NP, an amelanotic clone of HFH-LP. High passage HFH (HFH-HP) was derived from HFH-LP after 30 passages in vitro. […] These cell cultures further include Cloudman S91 mouse melanoma, RPMI 1846 (a Syrian hamster melanoma), baby hamster kidney (BHK) and Chinese hamster ovary (CHO). These cells were maintained as monolayers in Corning plastic flasks in Minimum Essential Medium (Eagle) with Earle's salts supplemented with 10% fetal bovine serum, 100 units of penicillin, 100 mg of streptomycin and 5 mg of amphotericin B per ml in 5% CO2 humidified air at 37° C.
(§8) Single cell suspensions were prepared as described above. Twenty-four hours after seeding, the cells were exposed to either (a) culture medium alone, or (b) culture medium containing 0.5 mM theophylline.
(§9) The values given are the mean from 6 replicates.

NP [9] = assay: cells; details: Mus musculus, 1.5 h, read-out: Effect on Growth Rate (inhibition), NP
Protocol: as §4, §5, §6

HFH-LP [10] = assay: cells; details: Mus musculus, 48 h, read-out: Growth inhibition, Morph. Alone vs. control
Source text: as §7, §8, §9

RPMI-1641 [11] = assay: cells; details: Mesocricetus auratus, 48 h, read-out: Growth inhibition, Morph. Alone vs. control
Source text: as §7, §8, §9

NP [12] = assay: cells; details: Mus musculus, 48 h, read-out: Growth inhibition, Morph. Alone vs. control
Source text: as §7, §8, §9

BHK [13] = assay: cells; details: Mesocricetus auratus, 48 h, read-out: Growth inhibition, Morph. Alone vs. control
Source text: as §7, §8, §9

in vitro = details: mouse, l929 cells
Protocol: (§10) These cells were maintained as monolayers in Corning plastic flasks in Minimum Essential Medium (Eagle) with Earle's salts supplemented with 10% fetal bovine serum, 100 units of penicillin, 100 mg of streptomycin and 5 mg of amphotericin B per ml in 5% CO2 humidified air at 37° C.
as §5, §6

[14] = system: S91 (Cloudman S91 mouse melanoma); assay: Effect of Cyclic Amines on Survival of Pigmented Melanoma (Table II), S91; details: 24 h, read-out: percentage dead, S91
Protocol: as §10, §5, §6

HFH-LP [15] = assay: Effect of Cyclic Amines on Survival of Pigmented Melanoma (Table II), HFH-LP; details: Mus musculus, 24 h, read-out: percentage dead, HFH-LP
Protocol: as §10, §5, §6

[16] = Effect of Cyclic Amines on Survival of Pigmented Melanoma (Table II), L929; details: mouse, l929 cells
Protocol: as §10, §5, §6

Source text for HFH-HP: as §7, §8, §9

SMILES: C1COCCN1 [morpholine]
- IC50 [1]: > 2400 µg/mL
- IC50 ([2]; Mus musculus, 48 h, read-out: ID50 (growth)): 1200 µg/mL (≈ 13.8 mM)
- inhibition of pigmented HFH cell line compared with unpigmented cell lines ([2]; at 1200 and 2400 ug/ml): inhibited significantly more (P<0.05)
- inhibition of pigmented cells ([2]; up to, 300-2400 ug/ml, 48 hours after treatment): up to 90%
- IC50 [3]: > 2400 µg/mL
- IC50 [4]: > 2400 µg/mL
- difference between unpigmented cell lines ([5]; any of the dosages tested): did not differ significantly from one another
- inhibition of nonpigmented cell growth ([5]; higher dosages, 48 hours after treatment): 20%
- effect on nonpigmented cell growth ([5]; low dosages, 48 hours after treatment): not affected
- inhibition at 13800 µM (HFH-LP [6]; 13.8 mM for 1.5 hr, mean ± S.E., 6 replicates): 97 ± 19%
- inhibition at 13800 µM (S91 melanoma; S91, 1 Hour Exposure to 13.8 mM): 60%
- inhibition at 13800 µM (L929 fibroblast; L929, 1 Hour Exposure to 13.8 mM): 0%
- cytotoxicity at 13800 µM (BHK [7]; 1 h): 0%
- cytotoxicity at 13800 µM (BHK [7]; 6 h): 0%
- cytotoxicity at 13800 µM (BHK [7]; 12 h): 0%
- cytotoxicity at 13800 µM (BHK [7]; 18 h): 0%
- cytotoxicity at 13800 µM (BHK [7]; 24 h): 20%
- cytotoxicity at 13800 µM (BHK [7]; 56 h): 100%
- cytotoxicity at 13800 µM (HFH; 1 h): 0%
- cytotoxicity at 13800 µM (HFH; 6 h): 40%
- cytotoxicity at 13800 µM (HFH; 12 h): 100%
- cytotoxicity at 13800 µM (HFH; 18 h): 100%
- cytotoxicity at 13800 µM (HFH; 24 h): 100%
- cytotoxicity at 13800 µM (HFH; 56 h): 100%
- cytotoxicity at 13800 µM (S91; S91, 1 h): 0%
- cytotoxicity at 13800 µM (S91; S91, 6 h): 50%
- cytotoxicity at 13800 µM (S91; S91, 12 h): 100%
- cytotoxicity at 13800 µM (S91; S91, 18 h): 100%
- cytotoxicity at 13800 µM (S91; S91, 24 h): 100%
- cytotoxicity at 13800 µM (S91; S91, 56 h): 100%
- cytotoxicity at 13800 µM (SH; 1 h): 0%
- cytotoxicity at 13800 µM (SH; 6 h): 0%
- cytotoxicity at 13800 µM (SH; 12 h): 5%
- cytotoxicity at 13800 µM (SH; 18 h): 80%
- cytotoxicity at 13800 µM (SH; 24 h): 80%
- cytotoxicity at 13800 µM (SH; 56 h): 100%
- inhibition at 1200 µg/mL (L929): -68%
- in vitro effectiveness of dosage/time regimen (melanin-pigmented cells; 2.3 mM for 6 days): effective in vitro for inhibiting the growth of melanin-pigmented cells with little or no effect upon unpigmented cells
- in vitro effectiveness of dosage/time regimen (melanin-pigmented cells; 13.8 mM for 1 hour): effective in vitro for inhibiting the growth of melanin-pigmented cells with little or no effect upon unpigmented cells
- selective toxicity to melanoma cells in vitro (melanin-pigmented cells; 750 ppm (9mM) or 500 ppm (5mM)): selectively toxic to melanoma cells in vitro
- greater toxicity of morpholine with theophylline pretreatment (HFH-HP; growth inhibition increasing from 25% to 54%): twofold
- growth inhibition with theophylline pretreatment (HFH-HP; morpholine with theophylline pretreatment): 54%
- growth rate with morpholine exposure alone (RPMI-1641 [8]): not inhibited
- inhibition at 13800 µM (NP [9]): 0%
- inhibition at 1200 µg/mL (HFH-LP [10]): 64%
- inhibition at 1200 µg/mL (RPMI-1641 [11]): -6%
- inhibition at 1200 µg/mL (NP [12]): -9%
- inhibition at 1200 µg/mL (BHK [13]): 0%
- cytotoxicity at 24 h, 13800 µM (in vitro): -101 ± 15%
- cytotoxicity at 13800 µM [14]: 55 ± 6%
- cytotoxicity at 13800 µM (HFH-LP [15]): 30 ± 7%

SMILES: C1CCNCC1 [piperidine]
- inhibition at 13800 µM (HFH-LP [6]; 1.5 h): 42 ± 4%
- inhibition of pigmented cell line HFH-LP (in words) (HFH-LP [6]; not as effective as morpholine at the dosage tested): selectively inhibitory to the pigmented cell line HFH-LP, although not as effective as morpholine
- inhibition at 13800 µM (S91 melanoma; S91, 1 h): 98%
- inhibition at 13800 µM (L929 fibroblast; L929, 1 h): 0%
- in vitro effectiveness of dosage/time regimen (melanin-pigmented cells; 13.8 mM for 1 hour): effective in vitro for inhibiting the growth of melanin-pigmented cells with little or no effect upon unpigmented cells
- inhibition at 13800 µM (NP [9]): 0%
- cytotoxicity at 13800 µM [14]: 44 ± 3%
- cytotoxicity at 24 h, 13800 µM [16]: -115 ± 14%
- cytotoxicity at 13800 µM (HFH-LP [15]): 33 ± 2%
